From ChEMBL document CHEMBL1156080, “Small molecule inhibitors of Myc/Max dimerization and Myc-induced cell transformation” (Bioorg Med Chem Lett, 2009)
Calls of active or inactive are those of the source. No cut-off for these calls is given here.

Columns and labels:
[1] = organism: Gallus gallus; test: Inhibition of Myc/Max heterodimerization in chicken embryo fibroblasts assessed as inhibition of oncogenically transformed cell foci formation at 20 uM
[2] = Cytotoxicity against chicken embryo fibroblasts; design: species or system Gallus gallus
[3] = Inhibition of Myc/Max heterodimerization at 20 uM by FRET assay
[4] = target: Proto-oncogene tyrosine-protein kinase Src (Gallus gallus) (UniProt P00523); test: Inhibition of Src-mediated oncogenic transformation in chicken embryo fibroblasts
[5] = target: Transcription factor Jun (Gallus gallus) (UniProt P18870); test: Inhibition of Jun-mediated oncogenic transformation in chicken embryo fibroblasts
Sequence of Transcription factor Jun (Gallus gallus) (P18870 whole entry): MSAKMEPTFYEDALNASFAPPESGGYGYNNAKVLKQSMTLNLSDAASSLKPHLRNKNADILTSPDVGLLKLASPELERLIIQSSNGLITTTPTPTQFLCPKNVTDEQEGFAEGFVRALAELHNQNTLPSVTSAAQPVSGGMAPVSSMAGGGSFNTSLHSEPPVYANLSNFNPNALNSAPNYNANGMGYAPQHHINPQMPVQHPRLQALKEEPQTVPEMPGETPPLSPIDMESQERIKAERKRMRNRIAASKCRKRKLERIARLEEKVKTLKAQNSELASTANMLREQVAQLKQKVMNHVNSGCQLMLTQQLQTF

inhibition [1] | inhibition [3] | inhibition [4] | inhibition [5] | SMILES | Activity [2]
Active | 66% | inactive |  | Cc1cc(C)c(S(=O)(=O)N[C@@H](CNC(=O)[C@@H]2CN(C(=O)CC3CCN(C(=O)OC(C)(C)C)CC3)C[C@H]2C(=O)O)C(=O)OC(C)(C)C)c(C)c1 [MYCMYCIN 1] | Non-toxic
Active | 18% |  | inactive | CNC(=O)[C@@H]1CN(C(=O)CCCCCNC(=O)OC(C)(C)C)C[C@H]1C(=O)NC[C@H](NS(=O)(=O)c1cc(Cl)sc1Cl)C(=O)OC(C)(C)C [MYCMYCIN 2] | Non-toxic
Active | 8% | inactive | inactive | CNC(=O)[C@@H]1CN(C(=O)CCCNC(=O)OC(C)(C)C)C[C@H]1C(=O)NC[C@H](NS(=O)(=O)c1cc(Cl)sc1Cl)C(=O)OC(C)(C)C | 
Active | 72% | inactive | inactive | CCCCS(=O)(=O)N[C@@H](CNC(=O)[C@@H]1CN(C(=O)CCCCCNC(=O)OC(C)(C)C)C[C@H]1C(=O)O)C(=O)OC(C)(C)C | 
Active | 30% | inactive | inactive | CNC(=O)[C@@H]1CN(C(=O)CCC2CCN(C(=O)OC(C)(C)C)CC2)C[C@H]1C(=O)NCCC(=O)OC(C)(C)C | 
Active | 43% | inactive | inactive | CNC(=O)[C@@H]1CN(C(=O)CCC2CCN(C(=O)OC(C)(C)C)CC2)C[C@H]1C(=O)NC[C@H](NS(=O)(=O)CCc1cccc2ccccc12)C(=O)OC(C)(C)C | 
Active | 24% | inactive | inactive | CNC(=O)[C@@H]1CN(C(=O)CCCCCNC(=O)OC(C)(C)C)C[C@H]1C(=O)NC[C@H](NS(=O)(=O)CCc1cccc2ccccc12)C(=O)OC(C)(C)C | 
Active | 75% | inactive | inactive | CN(C)c1cccc2c(S(=O)(=O)N[C@@H](CNC(=O)[C@@H]3CN(C(=O)CCC4CCN(C(=O)OC(C)(C)C)CC4)C[C@H]3C(=O)O)C(=O)OC(C)(C)C)cccc12 | 
